{"source": "patent US7326734B2", "about": "“Treatment of bladder and urinary tract cancers” (The Regents of the University of California, priority 2003, dated 2008)", "key": {"[1]": {"test_system": "T24 bladder cancer cells", "assay": "antiproliferative activity against T24 (Grade 3, non-metastatic) bladder cancer cells in vitro", "format": "cell-based", "settings": "for inhibition at 50 µg/mL / inhibition at 25 µg/mL / Percentage of inhibition related to control (%) / inhibition at 100 µM: bladder cancer cells in vitro; for inhibition at 50 µg/mL / inhibition at 25 µg/mL / inhibition at 100 µM: read-out: Percentage of inhibition related to control (%)", "protocol": "(§1) Compounds of the present invention were tested for antiproliferative activity against RT24 (Grade I) and T24 (Grade3, non-metastatic) bladder cancer cells in vitro, in accordance with well known standard technique as diagramed in FIG. 5."}, "[2]": {"test_system": "bladder cancer", "settings": "cited from earlier work"}, "[3]": {"test_system": "advanced transitional cell carcinoma of the urothelium", "settings": "Phase II, with prophylactic G-CSF, cited from earlier work"}, "[4]": {"test_system": "human bladder cancer cell lines", "settings": "cited from earlier work"}, "[5]": {"test_system": "RT24 (Grade I) bladder cancer cells", "assay": "antiproliferative activity against RT24 (Grade I) bladder cancer cells in vitro", "format": "cell-based", "settings": "FIGS. 1-4", "protocol": "FIG. 5 is a schematic diagram of the in vitro test for antiproliferative activity referred to in Example 1 below.\nas §1"}}, "data": [{"compound": "O=c1c(O)c(-c2ccc(O)cc2)oc2cc(O)cc(O)c12", "note": "[Kaempferol]", "values": [{"measurement": "inhibition at 50 µg/mL", "setting": "[1]; 50 μg/ml", "result": 60, "unit": "%"}]}, {"compound": "COc1ccc(/C=C/C(=O)c2c(OC)cc(O)cc2OC)cc1", "note": "[4′-hydroxy-4,2′,6′-trimethoxychalcone]", "values": [{"measurement": "inhibition at 25 µg/mL", "setting": "[1]; 25 μg/ml", "result": 73.7, "unit": "%"}]}, {"compound": "COC1=CC(=O)O[C@@H](/C=C/c2ccccc2)C1", "note": "[Kawain]", "values": [{"measurement": "inhibition at 25 µg/mL", "setting": "[1]; 25 μg/ml", "result": 33.6, "unit": "%"}]}, {"compound": "COc1ccc(-c2coc3cc(O)cc(O)c3c2=O)cc1", "note": "[Biochanin A]", "values": [{"measurement": "Percentage of inhibition related to control (%)", "setting": "[1]; 25 μg/ml", "result": 48.7, "unit": "%"}]}, {"compound": "Nc1ccn([C@@H]2O[C@H](CO)[C@@H](O)C2(F)F)c(=O)n1", "note": "[Gemcitabine]", "values": [{"measurement": "median survival", "setting": "[2]; clinical trials", "result": "less than 12 months"}, {"measurement": "response rate", "setting": "[2]; clinical trials", "result": "less than 30%"}, {"measurement": "toxicity", "setting": "[2]; phase II trials", "result": "in general mild and reversible"}]}, {"compound": "COc1cc(/C=C/C(=O)CC(=O)/C=C/c2ccc(O)c(OC)c2)ccc1O", "note": "[Curcumin]", "values": [{"measurement": "inhibition at 50 µg/mL", "setting": "[1]; 50 μg/ml", "result": 69.7, "unit": "%"}]}, {"compound": "Oc1cc(O)c2c(c1)O[C@H](c1ccc(O)c(O)c1)[C@H](O)[C@H]2c1c(O)cc(O)c2c1O[C@H](c1ccc(O)c(O)c1)[C@@H](O)C2", "note": "[Procyanidin B1]", "values": [{"measurement": "Percentage of inhibition related to control (%)", "setting": "[1]; 25 μg/ml", "result": 44.2, "unit": "%"}]}, {"compound": "COc1ccc2cc3[n+](cc2c1OC)CCc1cc2c(cc1-3)OCO2", "note": "[Berberine]", "values": [{"measurement": "inhibition at 50 µg/mL", "setting": "[1]; 50 μg/ml", "result": 17.9, "unit": "%"}]}, {"compound": "C[C@@]12C=Cc3occc3[C@H]1CC[C@@]13C[C@@H](CC[C@H]12)[C@@](O)(CO)C3", "note": "[Kahweol]", "values": [{"measurement": "Percentage of inhibition related to control (%)", "setting": "[1]; 50 μg/ml", "result": 61.2, "unit": "%"}]}, {"compound": "COc1cc(C2Oc3cc([C@H]4Oc5cc(O)cc(O)c5C(=O)[C@@H]4O)ccc3OC2CO)ccc1O", "note": "(stereo partly shown) [Silibinin]", "values": [{"measurement": "inhibition at 100 µM", "setting": "[1]", "result": 40, "unit": "%"}]}, {"compound": "COc1cc(O)cc(O)c1C(=O)CC(O)c1ccccc1", "note": "(stereo not shown) [1-(2,4-Dihydorxy-6-methoxy-phenyl-3-hydorxy-3-phenyl-propan-1-one]", "values": [{"measurement": "Percentage of inhibition related to control (%)", "setting": "[1]; 25 μg/ml", "result": 42.3, "unit": "%"}]}, {"compound": "O=c1oc2c(O)c(O)cc3c(=O)oc4c(O)c(O)cc1c4c23", "note": "[Ellagic acid]", "values": [{"measurement": "inhibition at 100 µM", "setting": "[1]", "result": 66, "unit": "%"}]}, {"compound": "O=C(O[C@@H]1Cc2c(O)cc(O)cc2O[C@@H]1c1cc(O)c(O)c(O)c1)c1cc(O)c(O)c(O)c1", "note": "[EGCG]", "values": [{"measurement": "Percentage of inhibition related to control (%)", "setting": "[1]; 25 μg/ml", "result": 34, "unit": "%"}]}, {"compound": "CC(=O)O[C@H]1C(=O)[C@@]2(C)[C@H]([C@H](OC(=O)c3ccccc3)[C@]3(O)C[C@H](OC(=O)[C@H](O)[C@@H](NC(=O)c4ccccc4)c4ccccc4)C(C)=C1C3(C)C)[C@]1(OC(C)=O)CO[C@@H]1C[C@@H]2O", "note": "[paclitaxel]", "values": [{"measurement": "objective response (response rate)", "setting": "[3]; previously untreated patients", "result": 42, "unit": "%"}, {"measurement": "toxicities", "setting": "[3]", "result": "granulocytopenia, anemia, mucositis, and neuropathy"}, {"measurement": "activity against human bladder cancer cell lines", "setting": "[4]", "result": "significant activity"}]}, {"compound": "CC(=O)OC[C@@]1(O)C[C@@]23CC[C@@H]4c5ccoc5CC[C@@]4(C)[C@@H]2CC[C@@H]1C3", "note": "[Cafestol Acetate]", "values": [{"measurement": "inhibition at 50 µg/mL", "setting": "[1]; 50 μg/ml", "result": 57.6, "unit": "%"}]}, {"compound": "O=c1oc2cc(O)ccc2c2oc3cc(O)ccc3c12", "note": "[Coumestrol]", "values": [{"measurement": "inhibition at 50 µg/mL", "setting": "[1]; 50 μg/ml", "result": 30, "unit": "%"}]}, {"compound": "O=c1c(O)c(-c2ccc(O)c(O)c2)oc2cc(O)cc(O)c12", "note": "[Quercetin]", "values": [{"measurement": "inhibition at 50 µg/mL", "setting": "[1]; 50 μg/ml", "result": 53.3, "unit": "%"}]}, {"compound": "O=C1C[C@@H](c2ccc(O)cc2)Oc2cc(O)cc(O)c21", "note": "[Naringenin]", "values": [{"measurement": "inhibition at 50 µg/mL", "setting": "[1]; 50 μg/ml", "result": 20, "unit": "%"}]}, {"compound": "O=c1c(-c2ccc(O)cc2)coc2cc(O)cc(O)c12", "note": "[Genistein]", "values": [{"measurement": "inhibition at 25 µg/mL", "setting": "[1]; 25 μg/ml", "result": 48.7, "unit": "%"}]}, {"compound": "COc1cc(/C=C/c2ccc(OC)c(OC)c2)oc(=O)c1", "note": "[11-Methoxyangonin]", "values": [{"measurement": "Percentage of inhibition related to control (%)", "setting": "[1]; 25 μg/ml", "result": 26.3, "unit": "%"}]}, {"compound": "11-Methysticin", "values": [{"measurement": "Percentage of inhibition related to control (%)", "setting": "[1]; 25 μg/ml", "result": 52.1, "unit": "%"}]}, {"compound": "Oc1ccc(C=Cc2cc(O)cc(O)c2)cc1", "note": "[Resveratrol]", "values": [{"measurement": "inhibition at 50 µg/mL", "setting": "[1]; 50 μg/ml", "result": 70.6, "unit": "%"}]}, {"compound": "O=c1c(-c2ccc(O)cc2)coc2cc(O)ccc12", "note": "[Daidzein]", "values": [{"measurement": "inhibition at 50 µg/mL", "setting": "[1]; 50 μg/ml", "result": 39.3, "unit": "%"}]}, {"compound": "COc1ccc(/C=C/C(=O)c2c(O)cc(OC)cc2OC)cc1", "note": "[Flavokawain A, 2′-hydroxy-4,4′,6′-trimethoxychalcone]", "values": [{"measurement": "inhibitory effects on proliferation", "setting": "[1]; T24 (Grade 3, non-metastatic) cells in vitro, FIGS. 1-4", "result": "significant inhibitory effects"}, {"measurement": "inhibitory effects on proliferation", "setting": "[5]", "result": "significant inhibitory effects"}]}, {"compound": "C[C@@H]1O[C@@H](OC[C@H]2O[C@@H](Oc3c(-c4ccc(O)c(O)c4)oc4cc(O)cc(O)c4c3=O)[C@H](O)[C@@H](O)[C@@H]2O)[C@H](O)[C@H](O)[C@H]1O", "note": "[Rutin]", "values": [{"measurement": "inhibition at 100 µM", "setting": "[1]", "result": 47.7, "unit": "%"}]}, {"compound": "O=C1c2c(O)cc(O)cc2O[C@H](c2ccc(O)c(O)c2)[C@H]1O", "note": "[Taxifolin]", "values": [{"measurement": "inhibition at 50 µg/mL", "setting": "[1]; 50 μg/ml", "result": 36.7, "unit": "%"}]}, {"compound": "O=c1c2ccccc2nc2n1CCc1c-2[nH]c2ccccc12", "note": "[Rutaecurpine]", "values": [{"measurement": "Percentage of inhibition related to control (%)", "setting": "[1]; 50 μg/ml", "result": 76, "unit": "%"}]}, {"compound": "O=c1c(O)c(-c2ccc(O)cc2O)oc2cc(O)cc(O)c12", "note": "[Morin]", "values": [{"measurement": "inhibition at 50 µg/mL", "setting": "[1]; 50 μg/ml", "result": 34, "unit": "%"}]}, {"compound": "C[C@@H]1O[C@@H](O[C@H]2[C@H](Oc3cc(O)c4c(c3)O[C@H](c3ccc(O)cc3)CC4=O)O[C@H](CO)[C@@H](O)[C@@H]2O)[C@H](O)[C@H](O)[C@H]1O", "note": "[Naringin]", "values": [{"measurement": "inhibition at 50 µg/mL", "setting": "[1]; 50 μg/ml", "result": 29, "unit": "%"}]}]}
